According to patent US20250381157A1, “ANTIMICROBIAL COMPOUNDS” (priority 2022, published 2025):
Where “and” joins values, the source holds several entries; their conditions need not be identical. Equal entries are not always repeated. Where two headings read alike, the source gives them in different places.

Assays:
[1] = system: Enterotoxigenic Escherichia coli (ETEC) (ATCC ® 35401 ™, H10407); format: in vivo, mouse; conditions: for Body weights (Final Day) (Mean ± SD) / Log10 CFU/g [Mean ± SD] Blood / Log10 CFU/g [Mean ± SD] Kidneys / Log10 CFU/g [Mean ± SD] Liver / Log10 CFU/g [Mean ± SD] Spleen / Kidney -Raw data on Vancomycin (32 μg/ml) plates / Liver-Raw data on Vancomycin (32 μg/ml) plates / Spleen -Raw data on Vancomycin (32 μg/ml) plates / Blood -Raw data on Vancomycin (32 μg/ml) plates - on day 7 PI: PO, twice daily(q12h), 9 days; for effect on bacterial translocation: presence of cyclophosphamide, FIG. 4; for Clinical observation (Mean Score) Hunched Posture / Clinical observation (Mean Score) Lethergy / Clinical observation (Mean Score) Rough coat / Clinical observation (Mean Score) hyperpnea: 0=absent 1=present; for Kidney -Raw data on Vancomycin (32 μg/ml) plates / Liver-Raw data on Vancomycin (32 μg/ml) plates / Spleen -Raw data on Vancomycin (32 μg/ml) plates / Blood -Raw data on Vancomycin (32 μg/ml) plates - on day 7 PI: individual animals
Protocol: FIG. 3: Schematic protocol for neutropenia mouse model
A schematic of the experimental model is depicted in FIG. 3.
That experiment was performed in the presence of cyclophosphamide, which is known to cause febrile neutropenia due to translocation of bacteria to vital organs.

recombinant human HDAC8 = molecular target: T1, recombinant human HDAC8 (Homo sapiens, UniProt Q9BY41); test: HDAC8 in-vitro enzymatic assay; format: biochemical
T1 construct: purchased BPS 50008
T1 sequence (Q9BY41 1-377): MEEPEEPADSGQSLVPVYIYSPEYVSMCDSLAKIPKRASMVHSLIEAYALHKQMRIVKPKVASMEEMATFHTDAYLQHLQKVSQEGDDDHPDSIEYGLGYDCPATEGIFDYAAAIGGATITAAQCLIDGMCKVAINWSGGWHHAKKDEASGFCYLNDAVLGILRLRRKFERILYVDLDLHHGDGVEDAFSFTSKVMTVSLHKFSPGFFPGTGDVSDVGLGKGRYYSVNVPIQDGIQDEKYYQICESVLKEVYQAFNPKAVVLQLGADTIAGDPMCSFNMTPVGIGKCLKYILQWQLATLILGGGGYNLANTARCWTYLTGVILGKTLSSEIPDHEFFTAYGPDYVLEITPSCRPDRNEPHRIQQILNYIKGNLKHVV
Protocol: All of the compounds were dissolved in DMSO. A series of dilutions of the compounds were prepared with 10% DMSO in HDAC assay buffer and 5 μl of the dilution was added to a 50 μl reaction so that the final concentration of DMSO was 1% in all of reactions. The compounds were pre-incubated in duplicate at RT for 30 minutes in a mixture containing HDAC assay buffer, 5 μg BSA, HDAC enzyme and a test compound. After 30 minutes, the enzymatic reactions were initiated by the addition of HDAC substrate to a final concentration of 20 μM or 2 μM. The enzymatic reaction proceeded for 30 minutes at 37° C. After enzymatic reactions, 50 μl of 2×HDAC Developer was added to each well for the HDAC enzymes and the plate was incubated at room temperature for an additional 15 minutes. Fluorescence intensity was measured at an excitation of 360 nm and an emission of 460 nm using a Tecan Infinite M1000 microplate reader.
HDAC activity assays were performed in duplicates at each concentration. The fluorescent intensity data were analyzed using the computer software, Graphpad Prism. […] The percent activity in the presence of each compound was calculated according to the following equation: % activity=(F−Fb)/(Ft−Fb), where F=the fluorescent intensity in the presence of the compound. […] The IC50 value was determined by the concentration causing a half-maximal percent activity.

[2] = Day (0), 5 mg/kg PO q12h 9 days
[3] = Day (0), 50 mg/kg PO q12h 9 days
[4] = Day (1), 5 mg/kg PO q12h 9 days
[5] = Day (1), 50 mg/kg PO q12h 9 days
[6] = Day (2), 5 mg/kg PO q12h 9 days
[7] = Day (2), 50 mg/kg PO q12h 9 days
[8] = Day (3), 5 mg/kg PO q12h 9 days
[9] = Day (3), 50 mg/kg PO q12h 9 days
[10] = Day (4), 5 mg/kg PO q12h 9 days
[11] = Day (4), 50 mg/kg PO q12h 9 days
[12] = Day (5), 5 mg/kg PO q12h 9 days
[13] = Day (5), 50 mg/kg PO q12h 9 days
[14] = Day (6), 5 mg/kg PO q12h 9 days
[15] = Day (6), 50 mg/kg PO q12h 9 days
[16] = Day (7), 5 mg/kg PO q12h 9 days
[17] = Day (7), 50 mg/kg PO q12h 9 days
[18] = Day (−1), 5 mg/kg PO q12h 9 days
[19] = Day (−1), 50 mg/kg PO q12h 9 days
[20] = Day (−2), 5 mg/kg PO q12h 9 days
[21] = Day (−2), 50 mg/kg PO q12h 9 days

## C#CCOCC(=O)Nc1ccc(C(=O)Nc2ccccc2N)cc1 [Compound 1, N-(2-aminophenyl)-4-{2-[(prop-2-yn-1-yl)oxy]acetamido}benzamide]
[1]; 5 mg/kg
  Body weights (Final Day) (Mean ± SD): 25.2 ± 1.69
  Log10 CFU/g [Mean ± SD] Blood: 1.9 ± 0 Log10 CFU/g
  Log10 CFU/g [Mean ± SD] Kidneys: 2.83 ± 0.29^ns Log10 CFU/g
  Log10 CFU/g [Mean ± SD] Liver: 2.58 ± 0.32 Log10 CFU/g
  Log10 CFU/g [Mean ± SD] Spleen: 3.05 ± 0.3^ns Log10 CFU/g
  effect on bacterial translocation: little to no effect
  Kidney -Raw data on Vancomycin (32 μg/ml) plates: 2.73 Log10 CFU/g and 3.23 Log10 CFU/g and 2.66 Log10 CFU/g and 2.94 Log10 CFU/g and 3.34 Log10 CFU/g and 2.68 Log10 CFU/g and 2.59 Log10 CFU/g and 2.54 Log10 CFU/g and 2.75 Log10 CFU/g and BLOQ
  Liver-Raw data on Vancomycin (32 μg/ml) plates: 2.67 Log10 CFU/g and 2.41 Log10 CFU/g (2×) and 3.42 Log10 CFU/g and 2.33 Log10 CFU/g and 2.39 Log10 CFU/g (2×) and 2.53 Log10 CFU/g and 2.61 Log10 CFU/g and 2.57 Log10 CFU/g
  Spleen -Raw data on Vancomycin (32 μg/ml) plates: 3.04 Log10 CFU/g and 3.00 Log10 CFU/g and 3.51 Log10 CFU/g and 2.62 Log10 CFU/g and BLOQ (4×) and 2.91 Log10 CFU/g and 3.17 Log10 CFU/g
  Blood -Raw data on Vancomycin (32 μg/ml) plates - on day 7 PI: 1.90 Log10 CFU/g
[1]; 50 mg/kg
  Body weights (Final Day) (Mean ± SD): 26.1 ± 1.20
  Log10 CFU/g [Mean ± SD] Blood: BLOQ
  Log10 CFU/g [Mean ± SD] Kidneys: BLOQ
  Log10 CFU/g [Mean ± SD] Liver: BLOQ
  Log10 CFU/g [Mean ± SD] Spleen: BLOQ
  effect on bacterial translocation: inhibits it completely
  Kidney -Raw data on Vancomycin (32 μg/ml) plates: BLOQ
  Liver-Raw data on Vancomycin (32 μg/ml) plates: BLOQ
  Spleen -Raw data on Vancomycin (32 μg/ml) plates: BLOQ
  Blood -Raw data on Vancomycin (32 μg/ml) plates - on day 7 PI: BLOQ
[1]; [2]
  Clinical observation (Mean Score) Hunched Posture: 0.0
  Clinical observation (Mean Score) Lethergy: 0.0
  Clinical observation (Mean Score) Rough coat: 0.0
  Clinical observation (Mean Score) hyperpnea: 0.0
[1]; [3]
  Clinical observation (Mean Score) Hunched Posture: 0.0
  Clinical observation (Mean Score) Lethergy: 0.0
  Clinical observation (Mean Score) Rough coat: 0.0
  Clinical observation (Mean Score) hyperpnea: 0.0
[1]; [4]
  Clinical observation (Mean Score) Hunched Posture: 0.0
  Clinical observation (Mean Score) Lethergy: 0.0
  Clinical observation (Mean Score) Rough coat: 0.0
  Clinical observation (Mean Score) hyperpnea: 0.0
[1]; [5]
  Clinical observation (Mean Score) Hunched Posture: 0.0
  Clinical observation (Mean Score) Lethergy: 0.0
  Clinical observation (Mean Score) Rough coat: 0.0
  Clinical observation (Mean Score) hyperpnea: 0.0
[1]; [6]
  Clinical observation (Mean Score) Hunched Posture: 0.0
  Clinical observation (Mean Score) Lethergy: 0.0
  Clinical observation (Mean Score) Rough coat: 0.0
  Clinical observation (Mean Score) hyperpnea: 0.0
[1]; [7]
  Clinical observation (Mean Score) Hunched Posture: 0.0
  Clinical observation (Mean Score) Lethergy: 0.0
  Clinical observation (Mean Score) Rough coat: 0.0
  Clinical observation (Mean Score) hyperpnea: 0.0
[1]; [8]
  Clinical observation (Mean Score) Hunched Posture: 0.0
  Clinical observation (Mean Score) Lethergy: 0.0
  Clinical observation (Mean Score) Rough coat: 0.0
  Clinical observation (Mean Score) hyperpnea: 0.0
[1]; [9]
  Clinical observation (Mean Score) Hunched Posture: 0.0
  Clinical observation (Mean Score) Lethergy: 0.0
  Clinical observation (Mean Score) Rough coat: 0.0
  Clinical observation (Mean Score) hyperpnea: 0.0
[1]; [10]
  Clinical observation (Mean Score) Hunched Posture: 0.0
  Clinical observation (Mean Score) Lethergy: 0.0
  Clinical observation (Mean Score) Rough coat: 0.0
  Clinical observation (Mean Score) hyperpnea: 0.0
[1]; [11]
  Clinical observation (Mean Score) Hunched Posture: 0.0
  Clinical observation (Mean Score) Lethergy: 0.0
  Clinical observation (Mean Score) Rough coat: 0.0
  Clinical observation (Mean Score) hyperpnea: 0.0
[1]; [12]
  Clinical observation (Mean Score) Hunched Posture: 0.0
  Clinical observation (Mean Score) Lethergy: 0.1
  Clinical observation (Mean Score) Rough coat: 0.5
  Clinical observation (Mean Score) hyperpnea: 0.0
[1]; [13]
  Clinical observation (Mean Score) Hunched Posture: 0.0
  Clinical observation (Mean Score) Lethergy: 0.0
  Clinical observation (Mean Score) Rough coat: 0.0
  Clinical observation (Mean Score) hyperpnea: 0.0
[1]; [14]
  Clinical observation (Mean Score) Hunched Posture: 0.0
  Clinical observation (Mean Score) Lethergy: 0.4
  Clinical observation (Mean Score) Rough coat: 0.7
  Clinical observation (Mean Score) hyperpnea: 0.0
[1]; [15]
  Clinical observation (Mean Score) Hunched Posture: 0.0
  Clinical observation (Mean Score) Lethergy: 0.0
  Clinical observation (Mean Score) Rough coat: 0.4
  Clinical observation (Mean Score) hyperpnea: 0.0
[1]; [16]
  Clinical observation (Mean Score) Hunched Posture: 0.0
  Clinical observation (Mean Score) Lethergy: 0.5
  Clinical observation (Mean Score) Rough coat: 1.0
  Clinical observation (Mean Score) hyperpnea: 0.0
[1]; [17]
  Clinical observation (Mean Score) Hunched Posture: 0.0
  Clinical observation (Mean Score) Lethergy: 0.0
  Clinical observation (Mean Score) Rough coat: 0.4
  Clinical observation (Mean Score) hyperpnea: 0.0
[1]; [18]
  Clinical observation (Mean Score) Hunched Posture: 0.0
  Clinical observation (Mean Score) Lethergy: 0.0
  Clinical observation (Mean Score) Rough coat: 0.0
  Clinical observation (Mean Score) hyperpnea: 0.0
[1]; [19]
  Clinical observation (Mean Score) Hunched Posture: 0.0
  Clinical observation (Mean Score) Lethergy: 0.0
  Clinical observation (Mean Score) Rough coat: 0.0
  Clinical observation (Mean Score) hyperpnea: 0.0
[1]; [20]
  Clinical observation (Mean Score) Hunched Posture: 0.0
  Clinical observation (Mean Score) Lethergy: 0.0
  Clinical observation (Mean Score) Rough coat: 0.0
  Clinical observation (Mean Score) hyperpnea: 0.0
[1]; [21]
  Clinical observation (Mean Score) Hunched Posture: 0.0
  Clinical observation (Mean Score) Lethergy: 0.0
  Clinical observation (Mean Score) hyperpnea: 0.0
[1]; day 7, compound 1 at 50 mg/kg
  Bacteria in treated animals: BLOQ
[1]; day 7, p<0.05
  antibacterial effect in liver and blood compared to vehicle controls: significant dose dependent antibacterial effect
[1]; 5 mg/kg, 5 mg/kg
  Blood -Raw data on Vancomycin (32 μg/ml) plates - on day 7 PI: BLOQ
[1]; treated groups
  clinical condition of animals: apparently normal
Recombinant human HDAC8
  IC50: > 200 µM
Recombinant human HDAC8; @ 200 μM, read-out: Inhib. HDAC8
  inhibition at 200 µM: 42%
